Test results taken from patent US9414590B2, “Chemical and biological agents for the control of molluscs” (priority 2009, dated 2016).
Like-named read-outs stand apart in the source and are kept apart here.

Assays:
[1] = test system: quagga mussels; experiment: whole plant or invertebrate; conditions: Dreissena rostriformis
[2] = test system: CL145A (ATCC 55799); experiment: Antibiotic resistance profile, discs on Mueller-Hinton Agar; type: cell-based, Pseudomonas protegens strain CL145A; conditions: for CL145A resistant or sensitive to the antibiotic: antibiotic disc, 72 hours incubation; for Suppresses growth of CL145A: 25° C., 72 hours
Experimental: One glycerol stock vial of CL145A was equally distributed onto Mueller-Hinton Agar plates (100 μl per plate) and spread on the plate using a sterile cell spreader. Antibiotic discs were then placed onto the plates along with a blank sterile disc. Plates were incubated at 25° C. in the dark for 72 hours.

[3] = test system: quagga mussels; experiment: Mussel bioassay test (live mussel jar-test); type: in vivo, Dreissena bugensis; conditions: Dreissena rostriformis, 16 μg/ml
Experimental: Twenty freshly collected quagga mussels is placed in a jar containing 250 mL of de-chlorinated tap water at room temperature. Jars are kept at room temperature and connected into a manifold providing constant air supply through bubbling. Each test subject (HPLC fraction or peak) dissolved in DMSO is pipetted into jars separately at a concentration of 1-5 mg, and the mussels are incubated with the test subject for 24 hours. After the incubation period, water in each jar is discarded, and the mussels are rinsed with fresh water and transferred into open glass petri dishes for a 10-day observation period. Mussels are checked daily for mortality, and the dead mussels are removed and discarded. Each treatment is carried out in three replicates, and in the end of the 10-day incubation period, % mortality is calculated for each treatment.
The potency of compounds isolated from Pseudomonas cell culture is tested using procedures described above.

[4] = test system: Brown garden snails (Cantareus aspersus); experiment: Snail experiments: chemical-containing corn starch; type: in vivo; conditions: 100 mg/gram corn starch; for Consumed amount of corn starch: after 24 hr
Experimental: An appropriate amount of a testing compound is dissolved in acetone (2 mL) first. The solution was added into 2.5 gram of corn starch and mixed well. The resulting mixture is transferred to a Petri dish (Φ 25 mm). The Petri dish is then put in the hood for natural dry. After drying, water (2 mL) is added into the Petri dish to make paste.
Brown garden snails (Cantareus aspersus) are collected from a house garden and raised at least 1 day in lab with cabbage or red carrot. Five individuals with a similar size are chosen for each treatment and transferred into a 1 L beaker. To make the snail active, some water is sprayed on them and in the beaker by using hand-sprayer. After spraying water, the Petri dish with chemical-containing corn starch is placed into the beaker the beaker is covered on the top with aluminum foil. Eating behavior, consumed amount of corn starch and mortality at 24 hr is recorded.

[5] = 24 h, read-out: Molluscicidal effect (mortality) 24 hr
[6] = 48 h, read-out: Molluscicidal effect (mortality) 48 hr
[7] = 72 h, read-out: Molluscicidal effect (mortality) 72 hr
[8] = 96 h, read-out: Molluscicidal effect (mortality) 96 hr
[9] = 24 hr, read-out: % mortality 24 hr
[10] = 48 hr, read-out: % mortality 48 hr
[11] = 72 hr, read-out: % mortality 72 hr
[12] = 96 hr, read-out: % mortality 96 hr
[13] = 24 h, read-out: Potency toward quagga mussels (mortality) 24 hr
[14] = 48 h, read-out: Potency toward quagga mussels (mortality) 48 hr
[15] = 72 h, read-out: Potency toward quagga mussels (mortality) 72 hr
[16] = 96 h, read-out: Potency toward quagga mussels (mortality) 96 hr

Row | Molecule | mortality at 11.1 µg/mL [1, 5] | mortality at 11.1 µg/mL [1, 6] | mortality at 11.1 µg/mL [1, 7] | mortality at 11.1 µg/mL [1, 8] | mortality at 11.1 µg/mL [1, 13] | mortality at 11.1 µg/mL [1, 14] | mortality at 11.1 µg/mL [1, 15] | mortality at 11.1 µg/mL [1, 16] | other results
1 | CCCCCCCCCCCC(=O)O [SAR-005] | 0% | 0% | 0% | 0% |  |  |  |  | 
2 | Penicillin |  |  |  |  |  |  |  |  | CL145A resistant or sensitive to the antibiotic [2]: resistant; Suppresses growth of CL145A ([2]; disc 10 μg): No
3 | CCCCCC1CCC(=O)O1 (stereo not drawn) [SAR-008] | 0% | 0% | 0% | 0% |  |  |  |  | 
4 | CCCCCCCC1CCOC1=O (stereo not drawn) [SAR-002] | 30 ± 10% | 66.7 ± 15.3% | 73.3 ± 11.5% | 76.7 ± 15.3% |  |  |  |  | 
5 | CCCCCCCCC1CCC(=O)O1 (stereo not drawn) [SAR-001] | 86.7 ± 5.8% | 96.7 ± 5.8% | 96.7 ± 5.8% | 96.7 ± 5.8% |  |  |  |  | 
6 | CCCCC/C=C/C(O)CCCCCCC1CCC(=O)O1 (stereo not drawn) [Piliferolide A] |  |  |  |  |  |  |  |  | mortality at 16 µg/mL [3, 9]: 53.3 ± 15.3%; mortality at 16 µg/mL [3, 10]: 53.3 ± 15.3%; mortality at 16 µg/mL [3, 11]: 70 ± 10%; mortality at 16 µg/mL [3, 12]: 80 ± 10%
7 | CCCCCCC1CCC(=O)O1 (stereo not drawn) [SAR-014] | 0% | 0% | 0% | 0% |  |  |  |  | Effect on brown garden snails [4]: strongly repel brown garden snails; 24 hr mortality ([4]; 24 hr): 0%; Consumed amount of corn starch [4]: 0% after
8 | CO/N=C(\C(=O)N[C@@H]1C(=O)N2C(C(=O)O)=C(COC(N)=O)CS[C@H]12)c1ccco1 [Cefuroxime] |  |  |  |  |  |  |  |  | CL145A resistant or sensitive to the antibiotic [2]: resistant; Suppresses growth of CL145A ([2]; disc 30 μg): No
9 | CCCC1CCC(=O)O1 (stereo not drawn) [SAR-011] | 0% | 0% | 0% | 0% |  |  |  |  | 
10 | CCCCCCCCCC(=O)N1CCCCC1 [SAR-021, N-(Decanoyl)piperidine] |  |  |  |  | 55 ± 21% | 55 ± 21% | 60 ± 14% | 65 ± 7% | 
11 | CCCCCCCCC1CCCC(=O)O1 (stereo not drawn) [SAR-003] | 3.3 ± 5.7% | 10 ± 10% | 10 ± 10% | 10 ± 10% |  |  |  |  | 
12 | CCCCCCCCC(O)CCC(=O)O (stereo not drawn) [SAR-006] | 0% | 0% | 0% | 0% |  |  |  |  | 
13 | CCCCCCCCCC1CCCC(=O)O1 (stereo not drawn) [SAR-004] | 0% | 0% | 0% | 0% |  |  |  |  | 
14 | O=C(/C=C/c1ccccc1)NC1CCCC1 [SAR-023, N-Cyclopentylcinnamamide] |  |  |  |  | 0% | 0% | 0% | 0% | 
15 | O=C1CCC(c2ccccc2)O1 (stereo not drawn) [SAR-013] | 0% | 0% | 0% | 0% |  |  |  |  | 
16 | CCCCCCCCCC(=O)NC1CCCC1 [SAR-020, N-Cyclopentyldecanamide] |  |  |  |  | 75 ± 7% | 75 ± 7% | 75 ± 7% | 75 ± 7% | 
17 | CCCCC/C=C/C(O)CCCCCCCCCC(=O)O (stereo not drawn) [11-Hydroxy-12-ene-octadecanoic acid] |  |  |  |  |  |  |  |  | mortality at 16 µg/mL [3, 9]: 0%; mortality at 16 µg/mL [3, 10]: 20 ± 20%; mortality at 16 µg/mL [3, 11]: 33.3 ± 20.8%; mortality at 16 µg/mL [3, 12]: 40 ± 26.5%
18 | CC[C@H]1OC(=O)[C@H](C)[C@@H](O[C@H]2C[C@@](C)(OC)[C@@H](O)[C@H](C)O2)[C@H](C)[C@@H](O[C@@H]2O[C@H](C)C[C@H](N(C)C)[C@H]2O)[C@](C)(O)C[C@@H](C)C(=O)[C@H](C)[C@@H](O)[C@]1(C)O [Erythromycin] |  |  |  |  |  |  |  |  | CL145A resistant or sensitive to the antibiotic [2]: resistant; Suppresses growth of CL145A ([2]; disc 15 μg): No
19 | O=C(/C=C/c1ccccc1)N1CCCCCC1 [SAR-026, N-(trans-Cinnamoyl) hexamethyleneimine] |  |  |  |  | 0% | 0% | 0% | 0% | 
20 | Gentamicin |  |  |  |  |  |  |  |  | CL145A resistant or sensitive to the antibiotic [2]: sensitive; Suppresses growth of CL145A ([2]; disc 10 μg): Yes
21 | CC1(C)S[C@@H]2[C@H](NC(=O)[C@H](N)c3ccccc3)C(=O)N2[C@H]1C(=O)O [Ampicillin] |  |  |  |  |  |  |  |  | CL145A resistant or sensitive to the antibiotic [2]: resistant; Suppresses growth of CL145A ([2]; disc 10 μg): No
22 | CCCCCCCCCC(=O)N1CCCCCC1 [SAR-022, N-(Decanoyl)hexamethyleneimine] |  |  |  |  | 35 ± 7% | 40 ± 14% | 40 ± 14% | 45 ± 21% | 
23 | CCN1CCN(C(=O)N[C@@H](C(=O)N[C@@H]2C(=O)N3[C@@H]2SC(C)(C)[C@@H]3C(=O)O)c2ccccc2)C(=O)C1=O [Piperacillin] |  |  |  |  |  |  |  |  | CL145A resistant or sensitive to the antibiotic [2]: sensitive; Suppresses growth of CL145A ([2]; disc 100 μg): Yes
24 | O=C(/C=C/c1ccccc1)N1CCCC1 [SAR-024, N-(trans-Cinnamoyl)pyrrolidine] |  |  |  |  | 0% | 0% | 0% | 0% | 
25 | [H]/N=C(/N)N[C@H]1[C@H](O)[C@@H](O)[C@H](O[C@@H]2O[C@@H](C)[C@](O)(C=O)[C@H]2O[C@@H]2O[C@@H](CO)[C@H](O)[C@@H](O)[C@@H]2NC)[C@@H](N/C(N)=N\[H])[C@@H]1O [Streptomycin] |  |  |  |  |  |  |  |  | CL145A resistant or sensitive to the antibiotic [2]: resistant; Suppresses growth of CL145A ([2]; disc 10 μg): No
26 | CCCCCCCCCC(=O)N1CCCC1 [SAR-007, N-(Decanoyl)pyrrolidine] |  |  |  |  | 35 ± 7% | 50 ± 14% | 55 ± 21% | 65 ± 21% | 
27 | O=C(/C=C/c1ccccc1)N1CCCCC1 [SAR-025, N-(trans-Cinnamoyl)piperidine] |  |  |  |  | 0% | 0% | 0% | 0% | 
28 | O=C(N[C@H](CO)[C@H](O)c1ccc([N+](=O)[O-])cc1)C(Cl)Cl [Chloramphenicol] |  |  |  |  |  |  |  |  | CL145A resistant or sensitive to the antibiotic [2]: resistant; Suppresses growth of CL145A ([2]; disc 30 μg): No
29 | CCCCCCCC=CC(=O)N1CCCC1 [SAR-030, N-(Decenoyl)pyrrolidine] |  |  |  |  |  |  |  |  | Effect on brown garden snails [4]: kill all brown garden snails after they ate; Consumed amount of corn starch [4]: Less than 5%
30 | CCCCCCC/C=C/C(=O)NC1CCCC1 [SAR-027, N-Cyclopentyldecenamide] |  |  |  |  | 85 ± 7% | 95 ± 7% | 95 ± 7% | 95 ± 7% | 
